Reference: ChEMBL document CHEMBL1146379, “Solid phase synthesis and SAR of small molecule agonists for the GPR40 receptor” (Bioorg Med Chem Lett, 2007)
pEC50, pIC50, pKi: −log10 of the molar value.

How the values were obtained:
[1] = Volume of distribution at steady state in rat; assay type: ADME, organism-based; conditions: in vivo, read-out: Vdss
[2] = Half life in iv dosed rat; assay type: ADME, organism-based; conditions: in vivo
[3] = molecular target: Free fatty acid receptor 1 (Homo sapiens, UniProt O14842); assay: Agonist activity at GPR40 receptor; assay type: functional
[4] = Distribution coefficient, log D at pH 7.4; assay type: physicochemical; conditions: octanol/water
[5] = molecular target: Sphingosine 1-phosphate receptor 1 (Homo sapiens, UniProt P21453); assay: Activity at S1P1 receptor
[6] = molecular target: Hydroxycarboxylic acid receptor 2 (Homo sapiens, UniProt Q8TDS4); assay: Activity at HM74A receptor
[7] = molecular target: T1, Peroxisome proliferator-activated receptor delta (Homo sapiens, UniProt Q03181); assay: Activity at PPARdelta receptor
T1 sequence (Q03181 whole entry): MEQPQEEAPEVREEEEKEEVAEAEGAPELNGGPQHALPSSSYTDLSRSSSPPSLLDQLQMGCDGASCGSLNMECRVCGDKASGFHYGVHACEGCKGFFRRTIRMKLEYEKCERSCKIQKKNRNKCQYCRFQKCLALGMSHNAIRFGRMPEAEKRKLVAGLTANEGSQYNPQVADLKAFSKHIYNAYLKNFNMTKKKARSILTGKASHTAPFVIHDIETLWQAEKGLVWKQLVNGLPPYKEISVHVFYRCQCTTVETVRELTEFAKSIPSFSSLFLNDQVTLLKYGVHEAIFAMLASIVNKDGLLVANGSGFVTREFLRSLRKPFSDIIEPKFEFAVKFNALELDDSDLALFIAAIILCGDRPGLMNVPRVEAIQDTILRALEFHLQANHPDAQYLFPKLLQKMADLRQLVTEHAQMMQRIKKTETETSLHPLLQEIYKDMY

[8] = molecular target: T2, Peroxisome proliferator-activated receptor gamma (Homo sapiens, UniProt P37231); assay: Activity at PPARgamma receptor
T2 sequence (P37231 whole entry): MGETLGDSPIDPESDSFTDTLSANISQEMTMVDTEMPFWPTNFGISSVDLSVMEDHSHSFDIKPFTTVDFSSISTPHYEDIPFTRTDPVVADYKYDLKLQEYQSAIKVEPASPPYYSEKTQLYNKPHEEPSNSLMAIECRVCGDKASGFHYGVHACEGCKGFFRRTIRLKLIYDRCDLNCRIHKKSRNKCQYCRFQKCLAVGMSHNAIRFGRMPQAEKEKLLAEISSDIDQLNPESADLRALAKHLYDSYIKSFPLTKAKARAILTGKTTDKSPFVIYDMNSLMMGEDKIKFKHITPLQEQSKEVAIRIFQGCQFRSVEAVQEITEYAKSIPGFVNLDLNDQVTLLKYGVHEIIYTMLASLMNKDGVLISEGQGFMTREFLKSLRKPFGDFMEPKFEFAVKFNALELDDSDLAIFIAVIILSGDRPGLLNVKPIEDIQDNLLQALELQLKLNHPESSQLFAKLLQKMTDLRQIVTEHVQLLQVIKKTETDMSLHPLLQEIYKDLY

[9] = molecular target: Cytochrome P450 2C9 (Homo sapiens, UniProt P11712); assay: Inhibition of CYP2C9; assay type: ADME
[10] = tested on: Liver microsomes; assay: Intrinsic clearance in human liver microsomes; assay type: ADME, Microsome
[11] = Permeability in MDCK cells expressing low Pgp; assay type: ADME, cell-based, Canis lupus familiaris; conditions: dog, MDCK type I; read-out: permeability
[12] = Clearance in rat; assay type: ADME, organism-based; conditions: in vivo

Chain of Sphingosine 1-phosphate receptor 1 (P21453 whole entry): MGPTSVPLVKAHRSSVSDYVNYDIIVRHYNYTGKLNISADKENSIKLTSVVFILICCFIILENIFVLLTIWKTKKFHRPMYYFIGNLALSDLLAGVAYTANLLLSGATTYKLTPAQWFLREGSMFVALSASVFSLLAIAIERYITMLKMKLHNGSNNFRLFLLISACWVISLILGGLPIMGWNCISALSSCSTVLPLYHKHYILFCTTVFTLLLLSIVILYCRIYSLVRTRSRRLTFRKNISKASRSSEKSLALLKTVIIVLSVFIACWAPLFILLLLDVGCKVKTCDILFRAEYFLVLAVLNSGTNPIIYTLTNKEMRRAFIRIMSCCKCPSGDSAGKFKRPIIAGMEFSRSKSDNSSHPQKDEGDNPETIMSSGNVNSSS
Chain of Hydroxycarboxylic acid receptor 2 (Q8TDS4 whole entry): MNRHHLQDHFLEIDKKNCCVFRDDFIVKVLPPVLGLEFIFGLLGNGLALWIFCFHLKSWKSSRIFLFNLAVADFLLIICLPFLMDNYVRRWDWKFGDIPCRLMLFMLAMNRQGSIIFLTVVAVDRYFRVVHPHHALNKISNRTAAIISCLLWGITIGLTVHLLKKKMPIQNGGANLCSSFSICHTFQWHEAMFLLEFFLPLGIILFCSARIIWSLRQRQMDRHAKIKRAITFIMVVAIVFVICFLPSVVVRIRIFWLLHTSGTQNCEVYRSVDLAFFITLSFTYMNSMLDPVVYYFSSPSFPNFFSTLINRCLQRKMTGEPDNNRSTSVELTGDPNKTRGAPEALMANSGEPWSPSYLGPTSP
Chain of Free fatty acid receptor 1 (O14842 whole entry): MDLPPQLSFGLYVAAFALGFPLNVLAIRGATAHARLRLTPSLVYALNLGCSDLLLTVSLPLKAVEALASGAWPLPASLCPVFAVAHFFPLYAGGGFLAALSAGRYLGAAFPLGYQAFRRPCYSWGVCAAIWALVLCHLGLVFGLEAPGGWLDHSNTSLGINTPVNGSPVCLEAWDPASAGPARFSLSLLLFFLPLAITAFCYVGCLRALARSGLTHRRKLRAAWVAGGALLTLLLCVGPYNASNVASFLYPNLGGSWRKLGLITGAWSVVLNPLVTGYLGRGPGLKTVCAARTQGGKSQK
Chain of Cytochrome P450 2C9 (P11712 whole entry): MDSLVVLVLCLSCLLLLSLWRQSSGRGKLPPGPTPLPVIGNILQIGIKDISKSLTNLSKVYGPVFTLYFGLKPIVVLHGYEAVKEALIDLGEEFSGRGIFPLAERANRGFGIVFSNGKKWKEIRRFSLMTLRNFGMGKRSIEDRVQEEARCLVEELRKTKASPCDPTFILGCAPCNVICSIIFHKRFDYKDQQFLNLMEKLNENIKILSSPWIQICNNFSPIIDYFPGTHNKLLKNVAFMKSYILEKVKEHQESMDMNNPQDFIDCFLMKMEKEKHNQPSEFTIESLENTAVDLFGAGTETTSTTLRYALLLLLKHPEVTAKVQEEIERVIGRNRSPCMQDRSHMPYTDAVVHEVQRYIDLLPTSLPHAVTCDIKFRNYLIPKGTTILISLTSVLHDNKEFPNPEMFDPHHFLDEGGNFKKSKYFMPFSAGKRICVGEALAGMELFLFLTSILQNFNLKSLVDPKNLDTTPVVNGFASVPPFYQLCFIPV

Vd [1]: 4.7 L/kg | half-life [2]: 5.3 h | pEC50 [3]: 7.10 | logD [4]: 1.95 | pEC50 [5]: < 4.50 | pEC50 [6]: < 5.20 | pKi [7]: < 5.50 | pKi [8]: < 5.50 | pIC50 [9]: < 4.48 | CL [10]: 0.74 mL/min/g | Papp [11]: 59.9 ×10⁻⁶ cm/s | clearance [12]: 24.9 mL/min/kg
Structure (SMILES): O=C(O)CCc1ccc(NCc2cccc(Oc3ccccc3)c2)cc1 [GW9508]
